Earlier results on two molecules are cited in patent publication US4927638A, “Etoposide solutions” (Bristol-Myers Company, priority 1988, dated 1990).

The conditions of data set [1]: oral (capsules or solution), of that found after intravenous administration; patients.
For data set [2] the following is noted: background statement.
The conditions of data set [3]: with water, ethanol, propylene glycol, isopropyl myristate, diethyl ether, acetone, corn oil, cottonseed oil, etc.

Turning to `COc1cc([C@@H]2c3cc4c(cc3[C@@H](O[C@@H]3O[C@@H]5CO[C@@H](C)O[C@H]5[C@H](O)[C@H]3O)[C@H]3COC(=O)[C@H]23)OCO4)cc(OC)c1O` [Etoposide, 4'-demethylepipodophyllotoxin-9-(4,6-O(R)-ethylidine-β-D-glucopyranoside)], the oral bioavailability entry in data set [1] is on record as “about 50%”. For the same molecule, the “solubility in water” value in data set [2] was “only sparingly soluble”.
Regarding `CO[C@H]1CO[C@H]2[C@@H]1OC[C@H]2OC` [Dimethylisosorbide, dimethylisosorbide], in data set [3], the miscibility entry is given as “miscible”.
